The source of these data is PMC8869097, “Benzothiazole Derivatives as Multifunctional Antioxidant Agents for Skin Damage: Structure–Activity Relationship of a Scaffold Bearing a Five-Membered Ring System” (Antioxidants, 2022).

Structures are written as SMILES.

The test system of one series is SK-Mel 5 cells. As to the kind of experiment: Antiproliferative activity. The conditions noted are these: Homo sapiens, read-out: IC50 SK-Mel5. Format: cell-based. The protocol:
(§1) A stock solution of the compounds (20 mM in DMSO) was prepared and stored at −18 °C. Then, the compounds were diluted in the cell culture medium and tested starting with the 100 µM concentration as the upper limit. The application of equation (6) allowed to obtain the values of IC50. C1 − [50 − N1%/N2% − N1%] − (C1 − C2),(6) where C1 is the concentration of the compound which inhibits cell proliferation by more than 50%; C2 is the concentration of the compound which inhibits cell proliferation below 50%; N1% represents the number of cells (expressed as a percentage of control without compound) obtained in the presence of C1 and N2% represents the number of cells (as a percentage of control without compound) obtained in the presence of C2.
(§2) Finally, the compounds of this series of benzothiazole derivatives were tested to evaluate their antiproliferative activity in vitro against human T-cell leukemia cell line (CEM), human cervical carcinoma cells (HeLa), human pancreas cancer cells (Mia Paca-2) and human melanoma cells (SK-Mel 5). Non-cancerous HEK293T cells (Normal Kidney Epithelial Cells) were chosen as a control for cytotoxicity and/or selectivity. The results obtained have been summarized in Table 5 (data shown only for the active compounds) and are expressed as IC50 values in μM. The selectivity index (SI) was also reported, determined by comparing the values of IC50 (μM) obtained on healthy cells (HEK 293) with that obtained on tumor cells (CEM, HeLa, Mia-Paca-2 and SK- Mel 5) (Table 5).

For another series, the system named is Trichophyton tonsurans. As to the kind of experiment: Antidermatophyte activity, plaque growth inhibition. Format: cell-based, Trichophyton tonsurans CBS 483.76. The settings on record: 100 μg/mL, SDA, read-out: % Inhibition Growth T. tonsurans. The protocol:
(§3) The dermatophytes used in this study were Epidermophyton floccosum var. floccosum (Netherlands) CBS 358.93 strain, Trichophyton tonsurans (Netherlands) CBS 483.76 strain, Trichophyton mentagrophytes (Netherlands) CBS 160.66 strain, Microsporum canis (Iran) CBS 131,110 strain, and Microsporum gypseum (Iran) CBS 130,948 strain. All dermatophytes were maintained at 4 °C as agar slants on SDA. Candida albicans (ATCC 10231) was maintained at 4 °C on SDA plate.
(§4) The in vitro antifungal activity against the five selected dermatophytes was evaluated, as previously described, using the plaque growth inhibition method. All compounds were evaluated at the final concentration of 100 µg/mL. The percentages of growth inhibition according to Equation (5) were calculated as the average of three different experiments. I = [(C − T)/C] × 100%,(5) where I is the percentage value of growth inhibition, C is the measure of the diameter of the control circular mycelial inoculum (mm) and T is the extended diameter of the treated mycelial inoculum (mm).
(§5) All synthesized benzothiazole derivatives were evaluated to evaluate their in vitro antifungal activity against the five pathogenic dermatophytes that cause the most common dermatomycoses: Microsporum gypseum, Microsporum canis, Trichophyton mentagrophytes, Trichophyton tonsurans and Epidermophyton floccosum. All compounds were tested at a concentration of 100 µg/mL in DMSO, to evaluate the ability to inhibit the growth of dermatophyte cultures in Sabouraud Dextrose Agar (SDA). Briefly, room temperature incubation was performed and dermatophyte inhibition assessed by measuring the colony diameter at each disc for 7 days. The results are shown in Table 3 and were determined as the average of three different experiments.

The subject of another series is HEK293T cells. Description: Cytotoxicity on non-cancerous control cells. It is filed as cell-based. The conditions noted are these: Homo sapiens, HEK-293T, read-out: IC50 Hek293. The protocol: as §1, §2
The next series deals with Mia-Paca2 cells. As to the kind of experiment: Antiproliferative activity. It is filed as cell-based. The conditions noted are these: Homo sapiens, MIA PaCa-2. How it is done: (§6) Human cervical carcinoma (HeLa) and human CD4+T-lymphoblast (CEM) cells were obtained from ATCC (Middlesex, UK). Human pancreatic carcinoma (Mia-Paca 2) cells were kindly provided by Prof. Anna Karlsson (Karolinska Institute, Stockholm, Sweden). All cell lines were grown in Dulbecco’s modified Eagle’s medium (DMEM; Gibco, Carlsbad, CA, USA), supplemented with 10% fetal bovine serum (FBS, Gibso), 0.01M Hepes (Gibco) and 1 mM sodium pyruvate (Gibco) in a humidified 5% CO2 incubator at 37 °C.
(§7) The cell suspensions of CEM, HeLa and Mia-Paca2 were treated with increasing concentrations of the selected compounds, following the protocol previously reported.
as §1, §2

A further series concerns CEM cells. Description: Antiproliferative activity. Format: cell-based. The conditions noted are these: Homo sapiens, CCRF-CEM. The protocol:
as §6, §7, §1, §2

Another series has as its system HeLa cells. As to the kind of experiment: Antiproliferative activity. Format: cell-based. The conditions noted are these: Homo sapiens. How it is done: as §6, §7, §1, §2
For a further series, the system named is Microsporum canis. As to the kind of experiment: Antidermatophyte activity, plaque growth inhibition. It is filed as cell-based, Microsporum canis CBS 131,110. The conditions noted are these: 100 μg/mL, SDA, read-out: % Inhibition Growth M. canis. The protocol:
as §3, §4, §5

Series [1] is described as follows: Photostability of formulations after solar simulator irradiation. Format: physicochemical. The conditions noted are these: for photostability of the filter: formulation on PMMA plate, photostable if residual % >= 80. How it is done:
The method adopted to determine the photostability has been previously reported. Each plate was prepared as mentioned above and subjected to a solar irradiation quantified as the minimum UVA dose equivalent to an effective erythema radiant exposure. Transmittance of the sunscreen layer was recorded in the range of 290–400 nm before and after exposure to sunlight.
Equations (3) and (4) made it possible to derive the residual percentage of SPF in vitro (% SPFeff.) and UVA-PF (% UVA-PFeff.), respectively, which, if greater than or equal to 80, can categorize a filter as photostable. %SPFeff. = in vitro SPFafter/in vitro SPFbefore × 100(3) %UVA − PFeff. = UVA − PFafter/UVA − PFbefore × 100.(4)
Photostability is a crucial feature to delineate the efficacy and safety profile of a solar formulation. According to the criteria developed by Garoli et al., photodegradation was measured by recording the pre- and post-irradiation transmittance of PMMA plates with finger-coated formulations, applying the dose of UVA necessary to cause erythema.
The residual efficacy after exposure (%) indicates the loss of sun protection after sun exposure. Equations (3) and (4) made it possible to derive the residual percentage of SPF in vitro (% SPFeff.) and UVA-PF (% UVA-PFeff.), respectively, which, if greater than or equal to 80, make a filter to be categorized as photostable, according to regulation. It can be deduced from the data obtained that compounds 8a and 10a were photostable (Figure 2). […] Compound 9a containing furan in position 2 was photo-unstable with SPF and PF-UVA below 80%, and this could be attributable to photo-instability of its conjugated species. The order of photostability that emerged for the benzothiazole derivatives is: thiophene derivatives> pyrrole derivatives> furan derivatives.

Usually IC50 stands for the concentration at which inhibition is half-maximal. What is called inhibition is the percentage by which the read-out fell short of the control. The term melting point denotes the temperature of the solid-liquid transition. In turn, `NS(=O)(=O)c1ccc2nc(-c3cccs3)sc2c1` [Compound 10c, 2-(Thiophen-2-Yl)benzothiazole-6-Sulfonamide] returned a melting point above 250 °C. Besides, in the series with SK-Mel 5 cells, the 50% inhibitory concentration (IC50) is above 100 µM. Further, the inhibition at 100 µg/mL with Trichophyton tonsurans came out at 6.35 ± 0.02%. For the same compound, the half-maximal inhibitory concentration (IC50) in the series on HEK293T cells was above 100 µM. In the series on Mia-Paca2 cells, this compound yielded a concentration for half-maximal inhibition (IC50) of 13 ± 3 µM. Moreover, in the series on CEM cells, the IC50 was above 100 µM. In addition, the half-inhibitory concentration (IC50) in the series on HeLa cells is above 100 µM. For the same compound, in the series on Microsporum canis, the inhibition at 100 µg/mL was determined as 14.3 ± 0.7%.

As to `c1coc(-c2nc3ccccc3s2)c1` [Compound 9a, 2-(Furan-2-Yl)benzothiazole], the melting point was determined as 103 °C. Further, in the series on SK-Mel 5 cells, the IC50 is 98 ± 2 µM. In addition, the inhibition at 100 µg/mL in the series with Trichophyton tonsurans was 57.9 ± 0.76%. In addition, the IC50 in the series with HEK293T cells is above 100 µM. In the series on Mia-Paca2 cells, this compound had a half-maximal inhibitory concentration (IC50) above 100 µM. Half-maximal inhibition in the series on CEM cells (IC50) required 41 ± 5 µM. The IC50 in the series with HeLa cells was above 100 µM. Moreover, the inhibition at 100 µg/mL with Microsporum canis came out at 64 ± 0.72%. In addition, in series [1] (after irradiation), the “residual percentage of SPF in vitro (% SPFeff.)” value was “below 80%” and the “residual percentage of UVA-PF (% UVA-PFeff.)” value is reported as “below 80%”. Also, the “photostability of the filter” value in series [1] is recorded as “photo-unstable”.

For `c1c[nH]c(-c2nc3ccccc3s2)c1` [Compound 8a, 2-(1H-Pyrrol-2-Yl)benzothiazole], the melting point was 132 °C. Moreover, in the series on SK-Mel 5 cells, the IC50 turned out to be 41 ± 4 µM. In the series on Trichophyton tonsurans, the inhibition at 100 µg/mL is 7.46 ± 0.05%. In the series with HEK293T cells, the half-maximal inhibitory concentration (IC50) is 68 ± 14 µM. The midpoint of inhibition in the series on Mia-Paca2 cells, the IC50, lay at 87 ± 18 µM. Moreover, in the series with CEM cells, the IC50 is above 100 µM. In the series with HeLa cells, this compound yielded a 50% inhibitory concentration (IC50) of 65 ± 2 µM. The inhibition at 100 µg/mL with Microsporum canis stood at 25 ± 1.61%. Further, the “photostability of the filter” value in series [1] is given as “photostable”.

On to `c1csc(-c2nc3ccccc3s2)c1` [Compound 10a, 2-(Thiophen-2-Yl)benzothiazole], for which the melting point is 99 °C. In addition, in the series on SK-Mel 5 cells, the IC50 worked out at 50 ± 5 µM. Further, the inhibition at 100 µg/mL with Trichophyton tonsurans is 64.5 ± 0.92%. Further, in the series on HEK293T cells, the concentration for half-maximal inhibition (IC50) is above 100 µM. The compound further returned a half-maximal inhibitory concentration (IC50) in the series on Mia-Paca2 cells above 100 µM. The compound further returned an IC50 in the series on CEM cells of 45 ± 3 µM. In addition, the half-maximal inhibitory concentration (IC50) in the series with HeLa cells was above 100 µM. The inhibition at 100 µg/mL with Microsporum canis worked out at 66 ± 0.82%. For the same compound, in [1], the “photostability of the filter” value is “photostable”.

Consider `c1c[nH]c(-c2nc3ccccc3[nH]2)c1` [Lead 10, reference compound], for which the IC50 in the series with SK-Mel 5 cells is 9.7 ± 1.7 µM; with HEK293T cells it was 31 ± 3 µM; in the series with Mia-Paca2 cells, 15 ± 9 µM; in the series on CEM cells, 14 ± 1 µM; in the series on HeLa cells, 37 µM. The inhibition at 100 µg/mL in the series with Trichophyton tonsurans turned out to be 96.97 ± 0.62%; in the series on Microsporum canis, 96.8 ± 3.56%.
